By IC50 is commonly meant the concentration that gives 50% inhibition. As usually defined, the inhibition in vivo is how much of the control response was suppressed. The inhibition is the change of the read-out against control, counted positive when it falls. What is called AUC is concentration integrated over time. Lower therefore signals less exposure.

This is an account of results in ChEMBL document CHEMBL2311347, “The discovery of fused oxadiazepines as gamma secretase modulators for treatment of Alzheimer's disease” (Bioorg Med Chem Lett, 2013).

For data set [1], the target named is Gamma-secretase. Briefly: Inhibition of gamma secretase (unknown origin) assessed as reduction of Abeta42 production. The format is protein-complex assay, Homo sapiens.
The target in data set [2] is Gamma-secretase (Homo sapiens) (UniProt Q96BI3+Q9NZ42+Q8WW43+P49768+Q92542+P49810). Put plainly: Inhibition of gamma secretase (unknown origin) assessed as ratio of Abeta to Abeta42 level. It is filed as protein-complex assay.
For data set [3], the system named is Rattus norvegicus. Put plainly: Antialzheimer's disease activity in rat assessed as reduction in Abeta42 level at 10 mg/kg, po measured after 3 hrs post dose. It is filed as functional.
Data set [4] deals with hERG (Homo sapiens, UniProt Q12809). Briefly: Inhibition of human ERG at 10 uM.
For data set [5], the target named is T1, Nuclear receptor subfamily 1 group I member 2 (Homo sapiens, UniProt O75469).
T1 sequence (O75469 whole entry): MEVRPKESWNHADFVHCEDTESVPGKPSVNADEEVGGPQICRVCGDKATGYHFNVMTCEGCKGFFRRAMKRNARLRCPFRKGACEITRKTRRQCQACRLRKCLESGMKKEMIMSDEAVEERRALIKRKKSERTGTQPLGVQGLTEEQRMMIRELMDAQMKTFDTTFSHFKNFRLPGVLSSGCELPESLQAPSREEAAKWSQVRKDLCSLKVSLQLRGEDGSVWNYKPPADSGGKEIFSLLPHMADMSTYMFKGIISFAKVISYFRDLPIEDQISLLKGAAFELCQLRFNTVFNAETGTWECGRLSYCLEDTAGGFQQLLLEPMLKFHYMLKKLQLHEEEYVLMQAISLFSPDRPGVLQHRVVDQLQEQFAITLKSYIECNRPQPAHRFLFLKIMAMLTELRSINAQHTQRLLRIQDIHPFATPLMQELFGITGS
Briefly: Activation of PXR (unknown origin) assessed as induction of CYP2B1/2 expression up to 30 uM relative to untreated control. The format is ADME.

Data set [6] deals with Rattus norvegicus. Put plainly: Antialzheimer's disease activity in rat assessed as reduction in Abeta42 level at 3 mg/kg, po measured after 3 hrs post dose. It is filed as functional.
The target of data set [7] is Cytochrome P450 2C9 (Homo sapiens, UniProt P11712). Put plainly: Inhibition of CYP2C9 (unknown origin). The format is ADME.
The nature of data set [8]: AUC in rat at 10 mg/kg, po measured after 6 hrs post dose. It is filed as ADME, organism-based. Also noted: time < 6 hr, dose 10 mg/kg, route oral. The settings on record: plasma.
Data set [9] is described as follows: Drug level in rat brain at 10 mg/kg, po measured after 6 hrs post dose. The settings on record: read-out: Drug uptake. It is filed as ADME, organism-based. Also noted: dose 10 mg/kg, route oral.
The target of data set [10] is Cytochrome P450 2D6 (Homo sapiens, UniProt P10635). Put plainly: Inhibition of CYP2D6 (unknown origin). It is filed as ADME.
A short description of data set [11]: Ratio of drug level in brain to plasma in rat at 10 mg/kg, po measured after 6 hrs post dose. The settings on record: read-out: BPR. Also noted: dose 10 mg/kg, route oral. The format is ADME, organism-based.
Data set [12] has as its system Rattus norvegicus. Put plainly: Antialzheimer's disease activity in po dosed rat assessed as reduction in Abeta42 level measured after 3 hrs post dose. It is filed as functional, organism-based.
The target in data set [13] is T1, Nuclear receptor subfamily 1 group I member 2. Briefly: Activation of PXR (unknown origin) assessed as induction of CYP1A1 expression up to 30 uM relative to untreated control. It is filed as ADME.
For data set [14] the target is unchanged. Put plainly: Activation of PXR (unknown origin) assessed as induction of CYP3A1 expression up to 30 uM relative to untreated control. It is filed as ADME.
The test system of data set [15] is Rattus norvegicus. Put plainly: Antialzheimer's disease activity in rat assessed as reduction in Abeta42 level at 30 mg/kg, po measured after 3 hrs post dose. It is filed as functional.
The target in data set [16] is Cytochrome P450 3A4 (Homo sapiens, UniProt P08684). Put plainly: Inhibition of CYP3A4 (unknown origin). It is filed as ADME.
Cytochrome P450 3A4, sequence (P08684 whole entry): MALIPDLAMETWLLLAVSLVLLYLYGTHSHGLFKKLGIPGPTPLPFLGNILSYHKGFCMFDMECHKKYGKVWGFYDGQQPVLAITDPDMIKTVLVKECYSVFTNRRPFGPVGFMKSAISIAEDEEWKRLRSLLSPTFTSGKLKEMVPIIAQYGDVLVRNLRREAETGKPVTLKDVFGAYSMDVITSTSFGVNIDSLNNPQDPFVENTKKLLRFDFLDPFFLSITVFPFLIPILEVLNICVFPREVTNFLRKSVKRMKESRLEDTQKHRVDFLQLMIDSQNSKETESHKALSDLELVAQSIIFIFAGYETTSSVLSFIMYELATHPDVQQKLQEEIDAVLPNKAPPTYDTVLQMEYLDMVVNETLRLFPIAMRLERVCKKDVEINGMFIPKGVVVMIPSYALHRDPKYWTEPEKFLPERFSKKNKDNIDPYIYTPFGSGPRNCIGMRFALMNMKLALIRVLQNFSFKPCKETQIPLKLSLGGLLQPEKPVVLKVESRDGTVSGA

hERG, sequence (Q12809 whole entry): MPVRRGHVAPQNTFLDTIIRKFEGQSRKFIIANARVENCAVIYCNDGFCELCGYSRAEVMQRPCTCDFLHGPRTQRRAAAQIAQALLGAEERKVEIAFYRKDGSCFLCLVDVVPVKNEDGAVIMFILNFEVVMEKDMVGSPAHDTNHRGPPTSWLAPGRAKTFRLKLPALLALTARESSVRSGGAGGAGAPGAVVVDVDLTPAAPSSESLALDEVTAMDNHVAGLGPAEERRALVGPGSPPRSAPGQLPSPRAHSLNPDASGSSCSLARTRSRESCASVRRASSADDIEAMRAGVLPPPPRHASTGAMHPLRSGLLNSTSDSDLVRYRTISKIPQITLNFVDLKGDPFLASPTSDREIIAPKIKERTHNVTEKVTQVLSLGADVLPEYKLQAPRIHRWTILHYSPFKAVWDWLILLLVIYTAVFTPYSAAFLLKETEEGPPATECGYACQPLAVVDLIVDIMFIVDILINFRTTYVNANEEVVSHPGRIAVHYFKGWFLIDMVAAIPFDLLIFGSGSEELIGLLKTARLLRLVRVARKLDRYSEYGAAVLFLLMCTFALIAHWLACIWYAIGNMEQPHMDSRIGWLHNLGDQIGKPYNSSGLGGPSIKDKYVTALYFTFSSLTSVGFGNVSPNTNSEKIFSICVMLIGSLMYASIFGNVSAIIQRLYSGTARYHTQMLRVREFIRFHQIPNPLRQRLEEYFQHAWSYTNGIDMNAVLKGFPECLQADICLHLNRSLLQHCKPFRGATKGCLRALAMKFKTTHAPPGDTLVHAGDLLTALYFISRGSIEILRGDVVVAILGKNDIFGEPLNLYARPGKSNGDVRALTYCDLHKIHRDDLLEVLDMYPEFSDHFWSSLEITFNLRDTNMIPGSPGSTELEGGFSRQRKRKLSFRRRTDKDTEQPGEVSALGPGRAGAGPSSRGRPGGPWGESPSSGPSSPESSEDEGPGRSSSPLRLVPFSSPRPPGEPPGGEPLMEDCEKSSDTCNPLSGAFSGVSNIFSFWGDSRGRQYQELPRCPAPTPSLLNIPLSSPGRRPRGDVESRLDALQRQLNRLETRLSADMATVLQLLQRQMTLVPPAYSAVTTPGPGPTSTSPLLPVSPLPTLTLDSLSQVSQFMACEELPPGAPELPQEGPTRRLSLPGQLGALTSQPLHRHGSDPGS
Cytochrome P450 2D6, sequence (P10635 whole entry): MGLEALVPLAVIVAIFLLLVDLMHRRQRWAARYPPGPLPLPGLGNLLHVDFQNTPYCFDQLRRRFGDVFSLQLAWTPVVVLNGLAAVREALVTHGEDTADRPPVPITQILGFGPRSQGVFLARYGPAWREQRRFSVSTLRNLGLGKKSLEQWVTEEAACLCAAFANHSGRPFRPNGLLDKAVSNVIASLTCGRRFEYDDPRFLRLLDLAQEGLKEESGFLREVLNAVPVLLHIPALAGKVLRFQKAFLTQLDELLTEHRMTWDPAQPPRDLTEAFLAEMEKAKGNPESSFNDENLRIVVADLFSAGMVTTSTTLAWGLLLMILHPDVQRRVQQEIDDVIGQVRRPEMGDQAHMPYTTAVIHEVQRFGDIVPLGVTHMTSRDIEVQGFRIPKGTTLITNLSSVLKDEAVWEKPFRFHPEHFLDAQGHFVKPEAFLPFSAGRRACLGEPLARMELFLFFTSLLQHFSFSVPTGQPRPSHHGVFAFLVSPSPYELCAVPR
Cytochrome P450 2C9, sequence (P11712 whole entry): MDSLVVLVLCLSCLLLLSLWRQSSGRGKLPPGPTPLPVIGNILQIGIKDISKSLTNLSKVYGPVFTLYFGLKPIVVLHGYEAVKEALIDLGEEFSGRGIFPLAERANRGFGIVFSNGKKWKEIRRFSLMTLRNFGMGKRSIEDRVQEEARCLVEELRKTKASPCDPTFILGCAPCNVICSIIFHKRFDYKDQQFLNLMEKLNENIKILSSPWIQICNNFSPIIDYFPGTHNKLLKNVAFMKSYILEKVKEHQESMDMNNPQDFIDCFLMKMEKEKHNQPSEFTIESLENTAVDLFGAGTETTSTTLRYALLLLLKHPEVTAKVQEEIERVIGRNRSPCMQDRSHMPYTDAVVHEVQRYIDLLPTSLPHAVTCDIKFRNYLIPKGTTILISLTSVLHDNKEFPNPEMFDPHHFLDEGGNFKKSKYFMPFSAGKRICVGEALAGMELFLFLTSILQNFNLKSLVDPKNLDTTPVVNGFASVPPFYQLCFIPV

With `COc1cc(/C=C2\CCCN3C2=NOCC[C@@H]3c2ccc(Cl)c(F)c2)ccc1-n1cnc(C)c1`, the half-inhibitory concentration (IC50) in data set [1] was found to be 95 nM. In data set [2], the Ratio was 210. Besides, the inhibition in vivo at 10 mg/kg in data set [3] came out at 57%.

With `COc1cc(/C=C2\CCCN3CCC(c4ccccc4)ON=C23)ccc1-n1cnc(C)c1` (configuration not stated), the half-inhibitory concentration (IC50) in [1] amounted to 41 nM. The Ratio in data set [2] worked out at 489. This compound came in with an inhibition at 10 µM in [4] of 93%.

On to `COc1cc(/C=C2\CCCN3C2=NOCC[C@@H]3c2ccc(F)cc2F)ccc1-n1cnc(C)c1`, for which the IC50 in data set [1] worked out at 52 nM. In addition, the Ratio in [2] was found to be 354. In data set [3], the inhibition in vivo at 10 mg/kg came to 23%.

For the compound `COc1cc(/C=C2\CCCN3CCC(c4cc(F)cc(Cl)c4)ON=C23)ccc1-n1cnc(C)c1` (configuration not stated), the IC50 in data set [1] came to 64 nM. Further, in data set [2], the Ratio came to 262. The inhibition at 10 µM in [4] is 61%.

With `COc1cc(/C=C2\CCCCN3C2=NOC[C@@H]3c2ccc(F)cc2)ccc1-n1cnc(C)c1`, in data set [1], the IC50 was 580 nM. Moreover, the Ratio in data set [2] amounted to 35.

For the compound `COc1cc(/C=C2\CCCN3C2=NOCC[C@@H]3c2cccc(F)c2)ccc1-n1cnc(C)c1`, in data set [1], the IC50 was determined as 35 nM. Moreover, the Ratio in data set [2] came out at 572. Moreover, 10 µM produced 86% inhibition in data set [4].

Consider `COc1cc(/C=C2\CCCCN3C2=NOC[C@@H]3c2cc(F)c(F)c(F)c2)ccc1-n1cnc(C)c1`, for which, in data set [1], the IC50 came out at 88 nM. Besides, the Ratio in data set [2] was 32.

Consider `COc1cc(/C=C2\CCCN3CC(c4ccc(F)cc4)CON=C23)ccc1-n1cnc(C)c1` (configuration not stated), for which the IC50 in data set [1] amounted to 130 nM. Further, in data set [2], the Ratio stood at 150. In addition, in data set [4], the inhibition at 10 µM worked out at 90%.

With `CCCO[C@@H]1CON=C2/C(=C/c3ccc(-n4cnc(C)c4)c(OC)c3)CCCN2[C@H]1c1cc(F)cc(F)c1`, in [1], the IC50 worked out at 1260 nM. In [2], the Ratio came to 16. This compound yielded an inhibition at 10 µM in data set [4] of 42%.

On to `COc1cc(/C=C2\CCCN3CCC(c4cc(F)cc(F)c4)ON=C23)ccc1-n1cnc(C)c1` (configuration not stated), for which the concentration for half-maximal inhibition (IC50) in [1] stood at 41 nM. Also, in data set [2], the Ratio worked out at 371.

Turning to `COc1cc(/C=C2\CCCN3C2=NOC[C@@H](O)[C@@H]3c2cc(F)cc(F)c2)ccc1-n1cnc(C)c1`, the concentration for half-maximal inhibition (IC50) in data set [1] came to 240 nM. Further, in [2], the Ratio is 83. The same compound gave an inhibition at 10 µM in [4] of 55%.

In the case of `COc1cc(/C=C2\CCCN3CC(c4ccccc4)CON=C23)ccc1-n1cnc(C)c1` (configuration not stated), the IC50 in [1] amounted to 140 nM. In addition, the Ratio in [2] was 140.

Turning to `COc1cc(/C=C2\CCCN3CCC(c4cc(F)c(F)c(F)c4)ON=C23)ccc1-n1cnc(C)c1` (configuration not stated), the IC50 in data set [1] is 53 nM. Also, in [2], the Ratio is 364. This compound displayed an inhibition at 10 µM in [4] of 89%.

As for `COc1cc(/C=C2\CCCN3C2=NOCC[C@@H]3c2ccc(F)c(F)c2)ccc1-n1cnc(C)c1`, the IC50 in [1] stood at 24 nM. In [2], the Ratio was 466. Also, in [3], the inhibition in vivo at 10 mg/kg came to 48%. In data set [4], the inhibition at 10 µM came out at 56%.

With `COc1cc(/C=C2\CCCN3C2=NOCC[C@@H]3c2cc(F)cc(F)c2)ccc1-n1cnc(C)c1`, the concentration for half-maximal inhibition (IC50) in data set [1] stood at 37 nM. Further, the Ratio in data set [2] came out at 392. The inhibition in vivo at 10 mg/kg in data set [3] turned out to be 39%. In data set [4], this compound had an inhibition at 10 µM of 49%.

For `COc1cc(/C=C2\CCCN3C2=NOCC[C@@H]3c2ccc(F)cc2)ccc1-n1cnc(C)c1`, in data set [1], the IC50 amounted to 49 nM. Also, in data set [2], the Ratio came to 409. Also, in data set [3], the inhibition in vivo at 10 mg/kg was found to be 40%. In data set [4], this compound had an inhibition at 10 µM of 81%.

In the case of `COc1cc(/C=C2\CCCN3C2=NOCC[C@@H]3c2cc(F)cc(Cl)c2)ccc1-n1cnc(C)c1`, the IC50 in [1] turned out to be 16 nM. In addition, the Ratio in data set [2] stood at 480. Further, the inhibition in vivo at 10 mg/kg in [3] worked out at 59%. Moreover, in [4], 10 µM produced 53% inhibition.

On to `COc1cc(/C=C2\CCCN3C2=NOC[C@@H]3c2cc(F)c(F)c(F)c2)ccc1-n1cnc(C)c1`, for which the Ratio in data set [2] worked out at 607.

As for `COc1cc(/C=C2\CCCN3C2=NOC(C)CC3c2cc(F)c(F)c(F)c2)ccc1-n1cnc(C)c1` (mixture of isomers), in data set [1], the half-inhibitory concentration (IC50) amounted to 41 nM. For the same compound, the Ratio in data set [2] was 480.

Turning to `COc1cc(/C=C2\CCCN3CCC(c4ccc(F)cc4)ON=C23)ccc1-n1cnc(C)c1` (configuration not stated), in data set [1], the IC50 is 43 nM. For the same compound, the Ratio in [2] was 465. The compound further displayed an inhibition at 10 µM in [4] of 93%.

Regarding `COc1cc(/C=C2\CCCN3C2=NOCC[C@@H]3c2cc(F)c(F)c(F)c2)ccc1-n1cnc(C)c1`, the IC50 in data set [1] is 39 nM; in data set [7], greater than 30000 nM; in data set [10], greater than 30000 nM; in data set [16] it was greater than 30000 nM. Also, the Activity in data set [5] is 0%; in [13] it was 2%; in data set [14] it was 0%. The inhibition in vivo at 3 mg/kg in data set [6] is 43%. In data set [2], the Ratio was 510. Moreover, the inhibition in vivo at 10 mg/kg in data set [3] stood at 61%. This compound displayed an AUC at 6 h in data set [8] of 15.8 µM·h. The concentration at 6 h in data set [9] turned out to be 1800 ng/g. Further, the Kp at 6 h in data set [11] was found to be 3.2. Also, the inhibition result in data set [12] was “Dose-dependent effect”. Besides, in data set [4], 10 µM produced 33% inhibition. The inhibition in vivo at 30 mg/kg in data set [15] came out at 78%.

`COc1cc(/C=C2\CCCN3C2=NOCC[C@@H]3c2ccc(F)c(Cl)c2)ccc1-n1cnc(C)c1`: the IC50 in data set [1] came to 40 nM. For the same compound, in data set [2], the Ratio was found to be 340. Besides, the inhibition in vivo at 10 mg/kg in data set [3] was 38%. Also, in data set [4], the inhibition at 10 µM worked out at 39%.
